Measurements taken from patent publication US11969417B2, “Topical formulation for use in alopecia” (TOMORROWLABS GMBH, priority 2019, dated 2024).
“Also recorded” adds a separate entry of the source.

System: dermal papilla cell (DP)
Assay: 3D spheroid (hanging drop) culture model of dermal papilla cells
Type: cell-based
Settings: 3D spheroid culture
Experimental: FIG. 1: 3D hanging drop culture of DPCs. […] After spheroid formation is complete, the samples are transferred into a 96 well plate for further cultivation and drug exposure. […] (A) Representative images of spheroids stained for newly synthesized cells were taken after drug exposure for 12 hours (left column) and 24 hours (right column) respectively. Scale bars: 200 μm.

Cc1c(O)c(=O)ccn1C [Deferiprone, 3-hydroxy-1,2-dimethylpyridin-4(1H)-one]
DP cell migration (radius of migration around the spheroids) (after 24 hours): without impeding; also recorded: unchanged
DP cell proliferation (synthesis of new daughter cells) (drug exposure for 12 hours and 24 hours): significantly increases; also recorded: significantly enhanced
